Assay results published in paper PMC6320288 (Neuroscience letters, 2018).

Key:
[1] = molecular target: T1, rat P2X4R (rP2X4R) (Rattus norvegicus, UniProt P51577); test: cell-based
T1 sequence (P51577 1-388): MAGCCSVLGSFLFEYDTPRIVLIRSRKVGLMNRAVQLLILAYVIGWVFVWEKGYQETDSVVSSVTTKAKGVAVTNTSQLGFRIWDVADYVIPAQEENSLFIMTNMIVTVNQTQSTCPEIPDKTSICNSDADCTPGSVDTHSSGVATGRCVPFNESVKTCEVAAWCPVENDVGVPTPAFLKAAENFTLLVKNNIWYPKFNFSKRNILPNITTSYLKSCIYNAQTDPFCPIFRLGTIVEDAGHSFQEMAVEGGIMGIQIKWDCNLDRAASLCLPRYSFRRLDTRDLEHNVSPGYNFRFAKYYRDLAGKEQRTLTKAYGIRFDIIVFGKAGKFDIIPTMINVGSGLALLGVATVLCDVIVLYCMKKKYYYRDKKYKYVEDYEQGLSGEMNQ

[2] = molecular target: T2, rat P2X3R (Rattus norvegicus, UniProt P49654); test: whole-cell patch clamp in transfected HEK293 cells; type: cell-based; settings: HEK293, read-out: % inhibition at 10 μM
T2 sequence (P49654 1-397): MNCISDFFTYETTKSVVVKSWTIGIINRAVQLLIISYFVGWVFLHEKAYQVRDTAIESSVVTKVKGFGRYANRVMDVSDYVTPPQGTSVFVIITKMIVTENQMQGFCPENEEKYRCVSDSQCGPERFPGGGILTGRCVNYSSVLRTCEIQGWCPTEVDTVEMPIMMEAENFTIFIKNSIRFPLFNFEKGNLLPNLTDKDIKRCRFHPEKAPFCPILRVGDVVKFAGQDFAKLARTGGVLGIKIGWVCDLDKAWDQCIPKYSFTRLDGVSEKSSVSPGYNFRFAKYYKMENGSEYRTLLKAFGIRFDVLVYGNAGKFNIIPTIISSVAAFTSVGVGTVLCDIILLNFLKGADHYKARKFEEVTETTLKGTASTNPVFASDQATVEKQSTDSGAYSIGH

## Nc1ncnc2c1ncn2[C@@H]1O[C@H](COP(=O)(O)OP(=O)(O)OP(=O)(O)O)[C@@H](O)[C@H]1O [ATP]
[1]
  EC50: 4.7 ± 1.8 µM

## O=C1CN=C(c2cccc(Br)c2)c2oc3ccccc3c2N1 [5-BDBD, 5-(3-bromophenyl)-1,3-dihydro-2H-benzofuro[3,2-e]-1,4-diazepin-2-one]
[2]
  inhibition at 10 µM: 35.9 ± 10.1%
